Laboratory results from the supplement of paper PMC10307832.

Legend:
Assay in all cases: relative viability (nuclei count vs DMSO), 5 days (fraction); higher = more cells survive
BI-2536 + Trametinib = compound: CC[C@@H]1C(=O)N(C)c2cnc(Nc3ccc(C(=O)NC4CCN(C)CC4)cc3OC)nc2N1C1CCCC1 [BI-2536] + CC(=O)Nc1cccc(-n2c(=O)n(C3CC3)c(=O)c3c(Nc4ccc(I)cc4F)n(C)c(=O)c(C)c32)c1 [Trametinib] (partner 0.02 µM)
In short: (§1)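 Nuclei were stained with Hoechst during a one-step fixation (final 0.05% Triton X-100, 1% formaldehyde, 1 ug/ml Hoechst) carried out 5 days after dosing, then counted on 4× images. The cells, lung cancer lines in 1536-well plates, had been dosed by pin tool the day after seeding with one drug alone or a fixed anchor-drug dose plus five library-drug doses (not always all listed) in √10 steps. Relative viability is the nuclei count in treated wells divided by that in vehicle wells, and each value is the median of duplicate plates.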

[1] = compound: CC1CC(=O)N(C2=CN=C(N=C2N1C3CCCC3)NC4=C(C=C(C=C4)C(=O)NC5CCN(CC5)C)OC)C [NPK76-II-72-1] + Nc1nc2[nH]cc(CCc3ccc(C(=O)N[C@@H](CCC(=O)O)C(=O)O)cc3)c2c(=O)[nH]1 [Pemetrexed] (partner 0.2 µM)
In short: as §1

BI-2536 + Pemetrexed = compound: CC[C@@H]1C(=O)N(C)c2cnc(Nc3ccc(C(=O)NC4CCN(C)CC4)cc3OC)nc2N1C1CCCC1 [BI-2536] + Nc1nc2[nH]cc(CCc3ccc(C(=O)N[C@@H](CCC(=O)O)C(=O)O)cc3)c2c(=O)[nH]1 [Pemetrexed] (partner 0.2 µM)
In short: as §1

BI-2536 + Foretinib = compound: CC[C@@H]1C(=O)N(C)c2cnc(Nc3ccc(C(=O)NC4CCN(C)CC4)cc3OC)nc2N1C1CCCC1 [BI-2536] + COc1cc2c(Oc3ccc(NC(=O)C4(C(=O)Nc5ccc(F)cc5)CC4)cc3F)ccnc2cc1OCCCN1CCOCC1 [Foretinib] (partner 0.25 µM)
In short: as §1

Row | Cell Line | relative viability (BI-2536 + Trametinib; first compound 0.01 µM) | relative viability (BI-2536 + Trametinib; first compound 0.03162 µM) | relative viability (BI-2536 + Trametinib; first compound 0.1 µM) | relative viability (BI-2536 + Trametinib; first compound 0.3162 µM) | relative viability (BI-2536 + Trametinib; first compound 1 µM) | relative viability ([1]; first compound 0.01 µM) | relative viability ([1]; first compound 0.03162 µM) | relative viability ([1]; first compound 0.1 µM) | relative viability ([1]; first compound 0.3162 µM) | relative viability ([1]; first compound 1 µM) | relative viability (BI-2536 + Pemetrexed; first compound 0.01 µM) | relative viability (BI-2536 + Pemetrexed; first compound 0.03162 µM) | relative viability (BI-2536 + Pemetrexed; first compound 0.1 µM) | relative viability (BI-2536 + Pemetrexed; first compound 0.3162 µM) | relative viability (BI-2536 + Pemetrexed; first compound 1 µM) | relative viability (BI-2536 + Foretinib; first compound 0.01 µM) | relative viability (BI-2536 + Foretinib; first compound 0.03162 µM) | relative viability (BI-2536 + Foretinib; first compound 0.1 µM) | relative viability (BI-2536 + Foretinib; first compound 0.3162 µM) | relative viability (BI-2536 + Foretinib; first compound 1 µM)
1 | NCI-H2347 | 0.261 | 0.302 | 0.282 | 0.264 | 0.238 | 0.502 | 0.42 | 0.417 | 0.403 | 0.354 | 0.437 | 0.437 | 0.38 | 0.365 | 0.344 | 1.07 | 0.742 | 0.933 | 0.311 | 0.292
2 | NCI-H1993 | 0.448 | 0.404 | 0.56 | 0.379 | 0.398 | 0.515 | 0.566 | 0.474 | 0.566 | 0.644 | 0.64 | 0.569 | 0.421 | 0.393 | 0.435 | 0.774 | 0.828 | 0.694 | 0.634 | 0.537
3 | NCI-H322M | 0.535 | 0.473 | 0.564 | 0.435 | 0.361 | 0.606 | 0.566 | 0.601 | 0.539 | 0.595 | 0.607 | 0.542 | 0.639 | 0.454 | 0.363 | 0.98 | 0.842 | 0.834 | 0.389 | 0.319
4 | NCI-H838 | 0.532 | 0.625 | 0.478 | 0.081 | 0.0789 | 0.277 | 0.251 | 0.263 | 0.237 | 0.245 | 0.241 | 0.239 | 0.183 | 0.12 | 0.119 | 0.953 | 1.06 | 0.636 | 0.145 | 0.134
5 | HARA | 0.765 | 0.971 | 0.545 | 0.0894 | 0.156 | 0.293 | 0.28 | 0.256 |  | 0.195 | 0.258 | 0.313 | 0.222 | 0.146 | 0.126 | 0.97 | 1.07 | 0.746 | 0.0569 | 0.0893
6 | NCI-H2087 | 0.18 | 0.183 | 0.147 | 0.0838 | 0.0815 | 0.66 | 0.653 | 0.588 | 0.661 | 0.63 | 0.7 | 0.697 | 0.713 | 0.104 | 0.0907 | 1.03 | 1.17 | 0.476 | 0.133 | 0.124
7 | NCI-H1437 | 0.636 | 0.483 | 0.428 | 0.149 | 0.177 | 0.319 | 0.305 | 0.307 | 0.305 | 0.352 | 0.321 | 0.288 | 0.267 | 0.227 | 0.212 | 1.25 | 1.18 | 0.852 | 0.198 | 0.179
8 | NCI-H2342 |  | 0.705 | 0.73 | 0.604 | 0.454 | 0.74 | 0.755 | 0.812 | 0.584 | 0.772 |  | 0.724 | 0.716 | 0.373 | 0.42 | 1.01 | 0.973 | 0.976 | 0.633 | 0.357
9 | ChaGo-K-1 | 0.9 | 0.875 | 0.733 | 0.181 | 0.202 | 0.243 | 0.259 | 0.261 | 0.246 | 0.257 | 0.268 | 0.264 | 0.215 | 0.179 | 0.17 | 0.851 | 0.972 | 0.687 | 0.164 | 0.217
10 | NCI-H650 | 0.847 | 0.956 | 0.858 | 0.152 | 0.16 | 1.01 | 0.972 | 0.879 | 0.922 | 0.994 | 0.912 | 1.11 | 0.551 | 0.196 | 0.139 | 0.981 | 0.952 | 0.678 | 0.207 | 0.155
11 | COR-L23 | 0.579 | 0.582 | 0.394 | 0.0573 | 0.0949 | 0.207 | 0.19 | 0.195 | 0.193 | 0.211 | 0.216 | 0.206 | 0.178 | 0.144 | 0.133 | 1.04 | 1.04 | 0.453 | 0.128 | 0.0906
12 | COR-L 105 | 0.463 | 0.454 | 0.394 | 0.267 | 0.297 | 1.06 | 1.07 | 0.992 | 1.02 | 1.12 | 0.986 | 1.13 | 1.01 | 0.384 | 0.362 | 1.12 | 0.848 | 0.913 | 0.366 | 0.344
13 | LK-2 | 0.787 | 0.752 | 0.746 | 0.173 | 0.181 | 0.228 | 0.292 | 0.334 | 0.235 | 0.271 | 0.249 | 0.249 | 0.0925 | 0.0896 | 0.1 | 1.32 | 0.923 | 0.861 | 0.18 | 0.162
